Source: ChEMBL document CHEMBL1144621, “Pharmacophore modeling and in silico screening for new KDR kinase inhibitors” (Bioorg Med Chem Lett, 2007)

Each compound was assayed against Vascular endothelial growth factor receptor 2 (Homo sapiens, UniProt P35968).
Vascular endothelial growth factor receptor 2, sequence (P35968 whole entry): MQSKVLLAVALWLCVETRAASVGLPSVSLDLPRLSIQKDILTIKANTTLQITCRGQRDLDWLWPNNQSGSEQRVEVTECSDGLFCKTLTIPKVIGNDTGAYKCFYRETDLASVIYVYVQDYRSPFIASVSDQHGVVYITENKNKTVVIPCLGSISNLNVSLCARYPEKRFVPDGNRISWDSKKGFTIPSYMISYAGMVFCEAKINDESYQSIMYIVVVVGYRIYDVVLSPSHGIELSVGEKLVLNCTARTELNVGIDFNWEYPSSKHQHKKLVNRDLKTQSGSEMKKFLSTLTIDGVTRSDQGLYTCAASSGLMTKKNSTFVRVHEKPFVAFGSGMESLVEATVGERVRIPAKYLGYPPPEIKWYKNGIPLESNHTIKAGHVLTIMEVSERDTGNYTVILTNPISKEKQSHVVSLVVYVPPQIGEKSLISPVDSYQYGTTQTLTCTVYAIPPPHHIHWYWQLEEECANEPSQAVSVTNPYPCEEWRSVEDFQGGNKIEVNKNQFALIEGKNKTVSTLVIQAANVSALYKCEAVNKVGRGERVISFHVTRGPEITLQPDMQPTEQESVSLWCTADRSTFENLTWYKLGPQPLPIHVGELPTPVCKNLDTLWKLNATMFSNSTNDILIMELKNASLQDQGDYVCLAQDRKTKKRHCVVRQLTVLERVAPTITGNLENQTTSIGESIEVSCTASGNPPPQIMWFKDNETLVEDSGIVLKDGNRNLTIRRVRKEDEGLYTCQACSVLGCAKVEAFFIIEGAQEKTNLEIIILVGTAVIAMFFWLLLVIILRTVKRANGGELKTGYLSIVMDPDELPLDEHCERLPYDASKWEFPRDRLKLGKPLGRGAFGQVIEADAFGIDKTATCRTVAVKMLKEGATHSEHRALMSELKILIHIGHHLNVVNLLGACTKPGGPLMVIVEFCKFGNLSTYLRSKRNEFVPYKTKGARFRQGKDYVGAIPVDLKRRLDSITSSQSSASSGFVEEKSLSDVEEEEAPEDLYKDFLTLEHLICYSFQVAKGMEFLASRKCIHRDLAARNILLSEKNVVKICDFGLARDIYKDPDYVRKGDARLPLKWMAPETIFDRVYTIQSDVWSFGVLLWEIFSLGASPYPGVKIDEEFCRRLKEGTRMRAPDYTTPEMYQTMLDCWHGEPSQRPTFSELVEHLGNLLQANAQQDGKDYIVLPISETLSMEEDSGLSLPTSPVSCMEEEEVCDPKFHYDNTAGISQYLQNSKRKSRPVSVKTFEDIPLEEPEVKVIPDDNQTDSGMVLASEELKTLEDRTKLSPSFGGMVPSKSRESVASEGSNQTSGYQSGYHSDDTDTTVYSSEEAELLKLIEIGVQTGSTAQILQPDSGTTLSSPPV

IC50	SMILES
15.4 µM	O=C1Nc2ccccc2/C1=C\c1sccc1Br
20 µM	Cn1cccc1/C=C1/C(=O)Nc2ccccc21
31 µM	Cc1cccc2c1/C(=C\c1ccc[nH]1)C(=O)N2
